According to ChEMBL document CHEMBL3507680, “University of Dundee, Gates Library screen for HepG2 cell viability”:

Experiment: Human HepG2 cell viability assay in 384 well format
Assay type: toxicity, cell-based
Parameters: dose 125 nL, time 70.5 hour; concentration not given beside the values
Settings: HepG2 cells, read-out: Inhibition

| Compound | cytotoxicity at 70.5 h |
| --- | --- |
| CCN(CC1CN(Cc2ccn(C(C)C)n2)CCO1)c1cccnn1 (stereo unspecified) | 1.41% |
| CN(Cc1n[nH]c(=O)n1CCc1ccccc1F)S(C)(=O)=O | -1.83% |
| Cn1nc(C2CCNC2)c2c(C(=O)NC3CC3)cc(C3CC3)nc21 (stereo unspecified) | 17.5% |
| Cc1nc(CN2CCCn3cnc(COCC4CC4)c3C2)cs1 | -1.49% |
| Cc1cnc(NC(=O)c2ccc(-n3ncc(C#N)c3N)cc2)s1 | 8.89% |
| COc1ccc(N2CCN(C[C@@H](C)CO)CC2=O)cc1 | -4.04% |
| Cc1ccsc1CNCc1c(C(C)C)nn(C)c1N1CCOCC1 | -20.5% |
| Cc1cc(C)n(-c2ccc(C(=O)NCC(c3cccs3)N(C)C)cc2)n1 (stereo unspecified) | -4.5% |
| Clc1ccccc1-c1nc(CNCCn2cccn2)cs1 | -6.01% |
| CCC(CNC(=O)c1ccc(C(N)=O)cc1)Oc1cccc(F)c1 (stereo unspecified) | -1.85% |
| CCCN(C(=O)c1ocnc1C)C1CCCN(Cc2ccccc2)C1 (stereo unspecified) | -5.56% |
| COc1cccc(NC(=O)NCC(C)(O)CCSC)c1OC (stereo unspecified) | -8.28% |
| O=C(NCCN1CCOCC1)NCC(O)c1cccc(F)c1 (stereo unspecified) | -3.47% |
| Cc1noc([C@H]2C[C@H]3OCC[C@H]3N(C3CCC3)C2)n1 | 24.7% |
| Cc1nn(C)c(C)c1CC(C)NC(=O)NCc1ccoc1C (stereo unspecified) | -4.68% |
| COc1cccc(CNC(=O)CCC2=Nc3ccccc3S(=O)(=O)N2)c1 | -1.77% |
| CN(C)CCOCc1nnc2n1CCN(CC1CC1)CC2 | 25.8% |
| CSc1cccc(CN(C)C(=O)Cn2ncc(N(C)C)cc2=O)c1 | -3.4% |
| CC(C)NC(=O)Cc1cnc(-n2cccc2)s1 | -24.2% |

| Compound | cytotoxicity at 70.5 h |
| --- | --- |
| CC(Cc1c(F)cccc1F)NC(=O)CN(CC(N)=O)C(C)C (stereo unspecified) | -2.04% |
| c1cnc(N2CC[C@@H](OCC3CC3)[C@@H]2Cc2cccnc2)nc1 | -4.73% |
| O=C(c1cscn1)N1CCCC2(CCN2Cc2cccc(F)c2)C1 (stereo unspecified) | -0.0272% |
| Cc1cccc(CN2CC[C@@H]3[C@@H](CO[C@H]3CNc3ncccn3)C2)n1 | -8.04% |
| c1ccc(-c2noc(C3CCN(CCn4cccn4)CC3)n2)cc1 | 12.8% |
| Cn1c(=O)c2sccc2n(CC(=O)Nc2cccc(Cl)c2)c1=O | 8.96% |
| CCCn1cc(NC(=O)c2cccc(CN3CC=CC3)c2)nn1 | 45.4% |
| Cc1cncc(C(=O)N2CCc3ncc(Cn4cccn4)n3CC2)c1 | 22.9% |
| COc1ccccc1C(NC(=O)C1CCCC1)c1noc(C)n1 (stereo unspecified) | 1.95% |
| Cn1c(N2CCOCC2)nc2cc(C(=O)N3CC(O)CO3)ccc21 (stereo unspecified) | 32.1% |
| COc1ccccc1-n1cc(C(=O)NCCn2nc(C)nc2C)cn1 | -9.92% |
| CCCC(C#N)NC(=O)CCCOc1cccc(F)c1 (stereo unspecified) | -9.46% |
| CS(=O)(=O)Nc1ccn(Cc2ccc(Br)cc2)n1 | -8.91% |
| CC(C)NC(=O)[C@H]1C[C@@H]2CN(C(=O)NCc3ccccc3)C[C@H]1O2 | -7.91% |
| Cn1nc2c(cc1=O)CN(Cc1nc(-c3cccs3)no1)CC2 | -14.3% |
| O=C1NC2(Cc3ccccc31)CN(CC1CCOCC1)C2 | 25.2% |
| CNC(=O)[C@@]12CCC3(CCN(S(C)(=O)=O)CC3)[C@@H]1CN(C(C)=O)C2 | -0.353% |
| COc1ccnc(N2Cc3cnc(C(C)(C)C)nc3C2)n1 | 0.551% |
| CCN(CC)CCNC(=O)CCc1c(C)nn(-c2ccccc2Cl)c1C | 16.4% |

| Compound | cytotoxicity at 70.5 h |
| --- | --- |
| O=C(NCc1ccccc1-n1cccn1)N1CCN2CCCCC2C1 (stereo unspecified) | 1.19% |
| Cc1c(CN(C)c2cc(C3CCCNC3)ncn2)[nH]c2ccccc12 (stereo unspecified) | -14.2% |
| N#Cc1ccc(N2CCN(c3ccc4nncn4n3)CC2)nc1 | -2% |
| CC(CN1CCOCC1)NC(=O)c1cc(Cl)c2c(c1)OCO2 (stereo unspecified) | 2.56% |
| COc1cc(/C=C/c2ncc(C(=O)O)s2)cc(Cl)c1O | 7.03% |
| CC(C)COC[C@H]1CC[C@H]2[C@H](CCN2C(=O)c2ccncc2F)O1 | -0.218% |
| Cc1nn(C)c(C)c1C1CCCN1Cc1ccc(C(N)=O)cc1 (stereo unspecified) | -10.3% |
| N#Cc1cccnc1NCc1cccnc1N1CCC(C(N)=O)CC1 | -9.67% |
| O=C(NCc1ccccc1)c1nn(C2CCS(=O)(=O)C2)c2c1CCCC2 (stereo unspecified) | 4.17% |
| CCC1CN(C(=O)c2cccc(O)c2)CCC(=O)N1Cc1ccccc1 (stereo unspecified) | 0.303% |
| CCOc1cncc(N2CCOCC2)n1 | -7.42% |
| CSCC1CCN(C(=O)c2ccccc2NCc2cccnc2)C1 (stereo unspecified) | -8.12% |
| NC(=O)c1ccc(CNC2CC2)cc1 | 16% |
| O=C(Cc1cccnc1)N1C[C@H]2CC[C@@H]1CN(Cc1ccc(F)cc1)C2 | 9.62% |
| Cn1ccnc1C(O)(CCNCc1ccc(Cl)o1)C(F)(F)F (stereo unspecified) | -14.8% |
| CC(NC(=O)NCCCOC1CCCCC1)c1nncn1C (stereo unspecified) | -6.4% |
| CCC[C@@H]1CN(Cc2nnc(-c3cccc(F)c3)o2)C[C@H]1NC(C)=O | -15.2% |
| OCc1cn(CC2CCN(C3CCSC3)CC2)nn1 (stereo unspecified) | -8.28% |
